Results as given in paper PMC6407913, “DREADD Agonist 21 Is an Effective Agonist for Muscarinic-Based DREADDs in Vitro and in Vivo” (ACS Pharmacology & Translational Science, 2018).
Positions count from the first letter of the chain named.

Experiments:
hM1Dq = biological target: T1, hM1Dq (Homo sapiens, UniProt P11229, A196G/Y106C); test: whole-cell [3H]NMS competition binding
T1 sequence (P11229 1-460 Y106C/A196G): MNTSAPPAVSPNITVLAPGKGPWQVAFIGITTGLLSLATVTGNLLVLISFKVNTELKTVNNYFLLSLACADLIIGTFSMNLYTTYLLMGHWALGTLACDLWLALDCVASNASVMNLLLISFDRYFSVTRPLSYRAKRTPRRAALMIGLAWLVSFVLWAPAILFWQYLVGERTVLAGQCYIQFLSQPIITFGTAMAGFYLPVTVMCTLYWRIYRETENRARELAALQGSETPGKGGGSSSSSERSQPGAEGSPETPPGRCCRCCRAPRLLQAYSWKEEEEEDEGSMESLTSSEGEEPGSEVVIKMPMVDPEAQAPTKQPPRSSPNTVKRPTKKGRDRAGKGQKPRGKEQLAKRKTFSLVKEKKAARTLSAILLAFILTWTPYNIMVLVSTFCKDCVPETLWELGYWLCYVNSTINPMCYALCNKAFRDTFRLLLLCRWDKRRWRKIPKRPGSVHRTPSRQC

hM4 = biological target: T2, hM4 (Homo sapiens, UniProt P08173); test: pERK assay, antagonist mode (shift of ACh curve); assay type: cell-based; conditions: hM4, CHO cells
T2 construct: HA (hemagglutinin); expressed in transfected cells
T2 sequence (P08173 1-479): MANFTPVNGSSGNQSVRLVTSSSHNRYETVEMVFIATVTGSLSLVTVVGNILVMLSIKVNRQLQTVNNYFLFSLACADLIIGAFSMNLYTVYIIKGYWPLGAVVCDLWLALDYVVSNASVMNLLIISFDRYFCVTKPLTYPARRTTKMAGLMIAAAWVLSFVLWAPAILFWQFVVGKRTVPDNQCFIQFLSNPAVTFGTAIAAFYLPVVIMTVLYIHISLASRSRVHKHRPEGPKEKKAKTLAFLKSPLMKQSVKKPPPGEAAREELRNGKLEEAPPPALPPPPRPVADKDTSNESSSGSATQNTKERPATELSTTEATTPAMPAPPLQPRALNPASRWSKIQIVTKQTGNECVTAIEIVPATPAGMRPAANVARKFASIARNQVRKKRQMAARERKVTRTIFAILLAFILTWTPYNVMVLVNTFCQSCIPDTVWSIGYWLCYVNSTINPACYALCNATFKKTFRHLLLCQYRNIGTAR

D2 = D2 (Homo sapiens, UniProt P14416); test: Gi1 BRET dissociation assay, antagonist mode; assay type: cell-based; conditions: human D2, HEK293T cells, vs quinpirole
Method: (§1) Separate pcDNA plasmids containing the sequence for Gβ1, Gγ2-GFP^2, Gi1-Rluc8, and either human dopamine D2 receptor or histamine H4 receptor were cotransfected into HEK293T cells (in 10 cm plates) at 1.5 μg/construct using Transit-2020 (Mirus) at a ratio of 3 μL/μg Transit/DNA. The next day, cells were harvested and plated in DMEM containing 1% dFBS in polylysine-coated 96-well plates (Greiner) at 50 000 cells per well. Sixteen hours later, media was aspirated from each well, and cells were subsequently rinsed with 60 μL of assay buffer (20 mM HEPES, 1× Hanks Buffered Saline Solution, pH 7.4). Before drug treatment, 60 μL of fresh assay buffer was added to each well followed by 10 μL of 50 uM Coelenterazine 400a (Prolume). Luminescence and fluorescence were measured using an LB940 Mithras (Berthold technologies), and BRET was computed as the ratio of GFP^2 fluorescence to luciferase signal.
(§2) In the absence of C21 ([B] = 0), this equation becomes the standard four-parameter logistic equation for fitting agonist concentration–response data.

[1] = biological target: T3, human H4 histamine receptors (Homo sapiens, UniProt Q9H3N8); test: Gi1 BRET dissociation assay, antagonist mode; assay type: cell-based; conditions: human H4, HEK293T cells, vs histamine
T3 construct: expressed in transfected cells; host or cells: HEK293T, transient (pcDNA plasmids)
Method: as §1, §2

hM1 = biological target: T4, hM1 (Homo sapiens, UniProt P11229); test: whole-cell [3H]NMS competition binding; conditions: hM1, FlpIn CHO cells, mean (±SEM)
T4 sequence (P11229 1-460): T1 sequence (P11229 1-460 Y106C/A196G) with C106Y, G196A

[2] = test system: hM3Dq expressed in ARC AgRP neurons; test: food intake, hM3Dq in ARC AgRP neurons (Agrp-ires-Cre mice)

Chain of D2 (P14416 whole entry): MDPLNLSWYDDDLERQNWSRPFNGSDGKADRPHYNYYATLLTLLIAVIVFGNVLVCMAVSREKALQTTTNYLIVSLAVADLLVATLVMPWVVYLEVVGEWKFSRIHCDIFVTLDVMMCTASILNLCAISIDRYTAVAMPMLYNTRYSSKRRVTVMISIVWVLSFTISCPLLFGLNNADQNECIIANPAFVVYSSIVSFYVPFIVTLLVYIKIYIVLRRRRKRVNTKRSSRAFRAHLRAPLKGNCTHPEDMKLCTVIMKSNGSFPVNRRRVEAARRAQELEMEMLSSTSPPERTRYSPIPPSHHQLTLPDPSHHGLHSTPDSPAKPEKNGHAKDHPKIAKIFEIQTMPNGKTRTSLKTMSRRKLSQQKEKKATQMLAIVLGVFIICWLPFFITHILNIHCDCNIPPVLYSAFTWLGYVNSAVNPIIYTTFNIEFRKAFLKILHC
T3 sequence (Q9H3N8 whole entry): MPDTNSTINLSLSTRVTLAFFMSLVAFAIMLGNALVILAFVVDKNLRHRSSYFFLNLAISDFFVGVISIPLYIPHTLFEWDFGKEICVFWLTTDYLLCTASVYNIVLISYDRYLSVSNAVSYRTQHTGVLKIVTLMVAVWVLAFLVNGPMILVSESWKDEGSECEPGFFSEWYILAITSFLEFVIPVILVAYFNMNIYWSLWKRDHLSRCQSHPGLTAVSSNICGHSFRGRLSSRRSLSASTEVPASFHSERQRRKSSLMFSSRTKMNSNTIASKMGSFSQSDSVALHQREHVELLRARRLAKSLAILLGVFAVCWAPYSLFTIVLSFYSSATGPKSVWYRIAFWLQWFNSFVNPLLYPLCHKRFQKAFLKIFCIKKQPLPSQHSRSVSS

c1ccc2c(c1)N=C(N1CCNCC1)c1ccccc1N2 [C21, 11-(1-piperazinyl)-5H-dibenzo[b,e][1,4]diazepine]
Ki (hM1Dq): 63.1 nM
higher binding affinity at hM1Dq than at wildtype hM1 (hM1Dq; hM1Dq vs hM1): > 10 fold
antagonist activity (shift of acetylcholine curve, pERK) (hM4): weak functional antagonism
antagonist activity, Gi-dissociation assay (D2): antagonism
antagonist activity, Gi-dissociation assay [1]: no antagonism was observed
Ki (hM1): 1070 nM
food intake, light cycle, sated mice ([2]; AgRP-ires-Cre mice with AAV-DIO-hM3Dq-mCherry, i.p.): dose-dependently promoted food consumption at comparable levels to CNO
food intake in control mice ([2]; wildtype (non-Cre-expressing) littermates injected with AAV-DIO-hM3Dq-mCherry): neither C21 nor CNO affected feeding behavior
